Source: PMC11901381 (Future Medicinal Chemistry, 2025)
Read-outs that look alike come from different tables or passages of the source. Blank lines part the entries; values can stand above or below the molecule they belong to.

Assays:
[1] = Animal cytotoxicity, CCK-8 assay; assay type: cell-based, bovine; conditions: bovine, MDBK (Madin-Darby bovine kidney) cells
[2] = system: T. brucei brucei strain GUTat3.1; assay: Antitrypanosomal assay; assay type: cell-based, Trypanosoma brucei brucei; conditions: for IC50: read-out: Antitrypomastigote activity IC50 ± SD Tbb GuTat3.1; for SI Tbb GuTat3.1: IC50 of MDBK/IC50 of trypanosome
[3] = system: L. major strain NIH S promastigotes; assay: Antipromastigote resazurin assay; assay type: cell-based, Leishmania major; conditions: for AG (activity gain): IC50 (1)/IC50 (compd.), L. major promastigotes; for IC50: Leishmania major, read-out: Antipromastigote activity IC50; for SI4: SI4 = IC50 Vero/IC50 promastigote, L. major
[4] = system: T. brucei rhodesiense strain IL1501; assay: Antitrypanosomal assay; assay type: cell-based, Trypanosoma brucei rhodesiense; conditions: IC50 of MDBK/IC50 of trypanosome
[5] = system: L. donovani strain 9515 promastigotes; assay: Antipromastigote resazurin assay; assay type: cell-based, Leishmania donovani; conditions: for AG (activity gain): IC50 (1)/IC50 (compd.), L. donovani promastigotes; for IC50: Leishmania donovani, read-out: Antipromastigote activity IC50; for SI1: SI1 = IC50 Vero/IC50 promastigote, L. donovani
General = assay type: cell-based; conditions: African green monkey, Vero cells (monkey kidney epithelial cells)
Trypanosoma spp. = assay: Antitrypanosomal assay, several species; assay type: cell-based; conditions: read-out: IC50 against several Trypanosoma spp.
[6] = Solubility observed during sample preparation and screening; assay type: physicochemical; conditions: aqueous screening medium
[7] = Host cell toxicity, resazurin assay; assay type: cell-based; conditions: human
[8] = system: L. major strain NIH S intramacrophage amastigotes; assay: Intramacrophage antileishmanial resazurin assay; assay type: cell-based, Leishmania major; conditions: L. major; for SI5: SI5 = IC50 Vero/static IC50 amastigote; for SI6: SI6 = IC50 Vero/cidal IC50 amastigote; for SpI3: SpI3 = IC50 promastigote/static IC50 amastigote; for SpI4: SpI4 = IC50 promastigote/cidal IC50 amastigote
[9] = system: T. brucei gambiense strain IL1922; assay: Antitrypanosomal assay; assay type: cell-based, Trypanosoma brucei gambiense; conditions: IC50 of MDBK/IC50 of trypanosome
[10] = system: T. equiperdum strain IVM-t1; assay: Antitrypanosomal assay; assay type: cell-based, Trypanosoma equiperdum; conditions: for SI Teq IVM-t1: IC50 of MDBK/IC50 of trypanosome
[11] = system: T. congolense strain IL3000; assay: Antitrypanosomal assay; assay type: cell-based, Trypanosoma congolense; conditions: IC50 of MDBK/IC50 of trypanosome
MDBK cells = assay: Animal cytotoxicity, CCK-8 assay; assay type: cell-based, bovine; conditions: read-out: Cytotoxicity IC50 ± SD MDBK; MDBK cells; three biological replicates

IC50 (General): 13.5 ± 0.8 µM
IC50 (Trypanosoma spp.): 20 to 40 µM
Solubility in aqueous screening medium [6]: poor solubility
SMILES: C#CCn1cc(/C=C2\SC(=S)NC2=O)c2cc([N+](=O)[O-])ccc21 [3b, (Z)-5-{[5-Nitro-1-(prop-2-yn-1-yl)-1 H-indol-3-yl]methylene}-2-thioxothiazolidin-4-one]
IC50 [1]: > 312 µM
IC50 ([2]; Trypanosoma brucei): > 78 µM
AG (activity gain) [3]: 0.9
IC50 [3]: 56.8 ± 5.57 µM
SI4 [3]: 0.2
SI Tbr IL1501 [4]: 4
AG (activity gain) [5]: 0.7
IC50 [5]: 68.7 ± 6.55 µM
SI1 [5]: 0.2

SMILES: O=Cc1cn(Cc2ccc(F)cc2)c2ccc([N+](=O)[O-])cc12 [2e, 1-(4-Fluorobenzyl)-5-nitro-1 H-indole-3-carbaldehyde]
IC50 [7]: > 100 µM
IC50 [1]: > 335 µM
SI5 [8]: 8
SI6 [8]: 8
SpI3 [8]: 7
SpI4 [8]: 8
SI Tbb GuTat3.1 [2]: 22
IC50 ([2]; Trypanosoma brucei): 15 ± 8.48 µM
AG (activity gain) [3]: 0.5
SI4 [3]: 1
SI Tbr IL1501 [4]: 4
AG (activity gain) [5]: 0.5
SI1 [5]: 1
IC50 (General): > 100 µM
SI Tbg IL1922 [9]: 15
IC50 (Trypanosoma spp.): 20 to 40 µM

SMILES: CC(=O)NCC(=O)O.CC(=O)NCC(=O)O.N=C(N)c1ccc(N=NNc2ccc(C(=N)N)cc2)cc1 [Diminazine aceturate, diminazene aceturate, reference compound]
SI Teq IVM-t1 [10]: 16340
IC50 ([10]; read-out: Antitrypomastigote activity IC50 ± SD Teq IVM-t1, three biological replicates): 0.022 ± 0.002 µM
SI Tc IL3000 [11]: 4000
IC50 (MDBK cells): > 355 µM
SI Tbb GuTat3.1 [2]: 5263
IC50 ([2]; three biological replicates): 0.068 µM
SI Tbr IL1501 [4]: 9091
SI Tbg IL1922 [9]: 33333

IC50 (General): 15.2 ± 0.32 µM
Solubility in aqueous screening medium [6]: poor solubility
SMILES: O=C1NC(=S)S/C1=C\c1c[nH]c2ccc([N+](=O)[O-])cc12 [3a, (Z)-5-[(5-Nitro-1 H-indol-3-yl)methylene]-2-thioxothiazolidin-4-one]
IC50 [7]: > 100 µM
SI Teq IVM-t1 [10]: 1
SI Tc IL3000 [11]: 1
IC50 [1]: 31.6 ± 1.67 µM
SI5 [8]: 25
SI6 [8]: 27
SpI3 [8]: 166
SpI4 [8]: 175
SI Tbb GuTat3.1 [2]: 1
IC50 ([2]; Trypanosoma brucei): 33.7 ± 5.01 µM
IC50 [3]: > 100 µM
SI Tbr IL1501 [4]: 0
IC50 [5]: > 100 µM
SI Tbg IL1922 [9]: 1
